In patent US12514928B2, “Herboxidiene antibody-drug conjugates and methods of use” (Eisai R&D Management Co., Ltd., priority 2018, dated 2026):
Where two headings read alike, the source gives them in different places.

Key:
[1] = test system: HCC1954 breast cancer cells; assay: Payload cell viability dose response (CellTiter-Glo 2.0), HCC1954 (Example 4); assay type: cell-based, human; details: for GI50: Homo sapiens
Description: (§1) Cell viability dose response was determined for exemplary payload compounds in HER2-amplified HCC1954 breast cancer cells and NCI-N87 gastric cancer cells.
(§2) HCC1954 (American Type Culture Collection (ATCC)) breast ductal carcinoma or NCI-N87 (ATCC) gastric carcinoma cells were plated at 500 cells/well in flat bottom 384-well tissue culture plates (Corning) in a total volume of 30 μL tissue culture medium supplemented with 10% fetal bovine serum (ThermoFisher Scientific). Cells were treated with a 4-fold serial dilution of compound from 10000 nM to 0.01 nM. Each concentration was tested in triplicate. At the time of treatment, a plate of untreated cells was evaluated using CellTiter-Glo® 2.0 Luminescent Cell Viability Assay according to the manufacturer's recommendations (Promega; #G9241). CellTiter-Glo® 2.0 reagent was added to the medium, incubated, and assayed on an EnVision Multilabel Reader (PerkinElmer). Values represent time zero (T0). The number of viable cells following 72 (T72) or 144 hours (T144) of compound treatment was also determined using the CellTiter-Glo®2.0 Luminescent Cell Viability Assay. Using the luminescence value at time zero (T0), DMSO control growth (C), and test growth in the presence of compound (T72 or T144), the percentage growth was calculated at each of the compound concentrations levels. Percentage growth inhibition was calculated as (e.g.): [(T144−T0)/(C−T0)]×100 for concentrations for which T144>/=T0 or [(T144−T0)/T0]×100 for concentrations for which T144<T0. The dose response curve plots were generated using Prism 8 (Graphpad) and fit using nonlinear regression analysis and the log(inhibitor) versus response-variable slope (four parameters).

[2] = test system: SLC25A19 mature transcript; assay: In-cell splicing PD assay, NCI-N87; assay type: cell-based; details: Homo sapiens, NCI-N87, 6 h
Description: (§3) 4.1.2 In-Cell Splicing PD Assay
(§4) Splicing of the SLC25A19 mature transcript was also examined in HCC1954 and NCI-N87 cells treated with increasing concentrations of exemplary payload compounds.
(§5) HCC1954 or NCI-N87 cells (ATCC) were plated in RPM1+10% FBS media (ATCC) at 1000 cells per well at 20 μL per well. Cells were treated with compounds in a 4-fold dilution dose-response. After 6 hours, cells were PBS washed and lysed with 30 μL of CL buffer (IgePal CA-630, 5M NaCl, 1M Tris HCl 1M pH 7.4 in water) containing 25 μL/mL of RNAsin (Promega) and incubated for 20 min at RT on a rocker. Resulting mixture (1 μL) was used to assess splicing modulation in a Taqman Fast Virus 1-Step MasterMix (Applied Biosystems) reverse transcription PCR reaction with the following Taqman primers according to the manufacturer's recommendations: SLC25A19 (Invitrogen, Hs00222265_m1); RPLPO (Invitrogen, Hs99999902_m1).

[3] = test system: NCI-N87 gastric cancer cells; assay: Payload cell viability dose response (CellTiter-Glo 2.0), NCI-N87 (Example 4); assay type: cell-based, human; details: for GI50: Homo sapiens
Description: as §1, §2

[4] = test system: SLC25A19 mature transcript; assay: In-cell splicing PD assay, HCC1954; assay type: cell-based; details: Homo sapiens, HCC1954, 6 h
Description: as §3, §4, §5

[5] = HCC1954, 72 h, read-out: CTG 72 h GI50
[6] = HCC1954, 144 h, read-out: CTG 144 h GI50
[7] = NCI-N87, 72 h, read-out: CTG 72 h GI50
[8] = NCI-N87, 144 h, read-out: CTG 144 h GI50

Row | Compound | CTG 72 h LD50 ([1]; HCC1954, 72 h) [µM] | CTG 72 h Rmin ([1]; HCC1954, 72 h) [%] | CTG 144 h LD50 ([1]; HCC1954, 144 h) [nM] | CTG 144 h Rm in ([1]; HCC1954, 144 h) [%] | GI50 [1, 5] [nM] | GI50 [1, 6] [nM] | IC50 [2] [nM] | GI50 [3, 7] [nM] | GI50 [3, 8] [nM] | CTG 72 h LD50 ([3]; NCI-N87, 72 h) [µM] | CTG 72 h Rmin ([3]; NCI-N87, 72 h) [%] | CTG 144 h LD50 ([3]; NCI-N87, 144 h) [nM] | CTG 144 h Rmin ([3]; NCI-N87, 144 h) [%] | IC50 [4] [nM]
1 | CO[C@H]([C@@H](C)[C@H]1O[C@]1(C)C[C@H](C)/C=C/C=C(\C)[C@H]1O[C@@H](CNC(=O)[C@H]2CC[C@H](COC(=O)N3CCN(C)CC3)CC2)CC[C@@H]1C)[C@@H](C)O [Compound H22] | > 10 | 82.229 | > 10000 | 71.431 | > 10000 | > 10000 | > 10000 | > 10000 | 5100 | > 10 | 48.181 | > 10000 | 29.113 | > 10000
2 | CO[C@H]([C@@H](C)[C@H]1O[C@]1(C)C[C@H](C)/C=C/C=C(\C)[C@H]1O[C@@H](CC(=O)N[C@@H](CCOC(=O)N2CCN(C)CC2)C(=O)O)CC[C@@H]1C)[C@@H](C)O [Compound H14] | > 10 | −42.359 | 2055.923 | −95.522 | 626 | 682 | 962 | 415 | 730 | > 10 | −2.467 | 7944.263 | −63.41 | 1350
3 | COC(=O)[C@@H](CCCCNC(=O)C[C@H]1CC[C@H](C)[C@@H](/C(C)=C/C=C/[C@@H](C)C[C@@]2(C)O[C@@H]2[C@H](C)[C@@H](OC)[C@@H](C)O)O1)NC(=O)N1CCN(C)CC1 [Compound H20] | > 10 | −44.802 | 98.861 | −94.301 | 40.4 | 36.4 | 56.2 | 29.4 | 21 | > 10 | −62.676 | 532.734 | −94.539 | 51.4
4 | CO[C@H]([C@@H](C)[C@H]1O[C@]1(C)C[C@H](C)/C=C/C=C(\C)[C@H]1O[C@@H](CC(=O)N[C@@H](CCNC(=O)N2CCN(C)CC2)C(=O)O)CC[C@@H]1C)[C@@H](C)O [Compound H15] | > 10 | −44.191 | 31.77 | −95.522 | 18.1 | 11.7 | 15.4 | 6 | 3.5 | > 10 | −18.031 | 106.186 | −82.661 | 37.1
5 | CO[C@H]([C@@H](C)[C@H]1O[C@]1(C)C[C@H](C)/C=C/C=C(\C)[C@H]1O[C@@H](CC(=O)N[C@@H](COC(=O)N2CCN(C)CC2)C(=O)O)CC[C@@H]1C)[C@@H](C)O [Compound H13] | > 10 | −54.164 | 690.614 | −97.151 | 190 | 210 | 108 | 53.9 | 115 | > 10 | −15.164 | 2784.969 | −80.613 | 320
6 | CO[C@H]([C@@H](C)[C@H]1O[C@]1(C)C[C@H](C)/C=C/C=C(\C)[C@H]1O[C@@H](CC(=O)NCCCC[C@@H](NC(=O)N2CCN(C)CC2)C(=O)O)CC[C@@H]1C)[C@@H](C)O [Compound H19] | > 10 | 32.813 | > 10000 | 27.17 | 8990 | 7930 | > 10000 | > 10000 | 3270 | > 10 | 44.396 | > 10000 | 17.442 | > 10000
7 | CO[C@H]([C@@H](C)[C@H]1O[C@]1(C)C[C@H](C)/C=C/C=C(\C)[C@H]1O[C@@H](CC(=O)N[C@@H](CCCOC(=O)N2CCN(C)CC2)C(=O)O)CC[C@@H]1C)[C@@H](C)O [Compound H17] | > 10 | −48.872 | 275.218 | −96.54 | 139 | 126 | 114 | 47 | 81.3 | > 10 | −15.164 | 912.895 | −65.458 | 135
8 | COC(=O)[C@H](CCNC(=O)N1CCN(C)CC1)NC(=O)C[C@H]1CC[C@H](C)[C@@H](/C(C)=C/C=C/[C@@H](C)C[C@@]2(C)O[C@@H]2[C@H](C)[C@@H](OC)[C@@H](C)O)O1 [Compound H16] | > 10 | −65.968 | 22.316 | −98.779 | 11.8 | 8.98 | 8.55 | 6.76 | 3.62 | > 10 | −21.717 | 98.186 | −86.757 | 16.7
9 | COC(=O)[C@@H](CCCCNC(=O)N1CCN(C)CC1)NC(=O)C[C@H]1CC[C@H](C)[C@@H](/C(C)=C/C=C/[C@@H](C)C[C@@]2(C)O[C@@H]2[C@H](C)[C@@H](OC)[C@@H](C)O)O1 [Compound H21] | > 10 | −54.164 | 127.893 | −97.761 | 81.4 | 50 | 87.5 | 35.5 | 40.9 | > 10 | −7.791 | 654.736 | −86.347 | 157
10 | CO[C@H]([C@@H](C)[C@H]1O[C@]1(C)C[C@H](C)/C=C/C=C(\C)[C@H]1O[C@@H](CC(=O)N[C@H](CCCOC(=O)N2CCN(C)CC2)C(=O)O)CC[C@@H]1C)[C@@H](C)O [Compound H18] | > 10 | −20.785 | 1606.048 | −88.195 | 624 | 436 | 464 | 300 | 313 | > 10 | −12.297 | 3937.618 | −60.543 | 1680
